In patent US20250304542A1, “Fused Heterobicyclic Antiviral Agents” (Enanta Pharmaceuticals, Inc., priority 2024, published 2025):
Where two headings read alike, the source gives them in different places.

Tests used:
HBV = HBV Infection in HepG2-NTCP Cells (HBeAg AlphaLISA); type: cell-based; details: Hepatitis B virus, 192 h
Description: HepG2-NTCP A3 cells were maintained in DMEM media supplemented with GlutaMAX™, 10% fetal bovine serum, 1% penicillin/streptomycin, and 5 μg/mL puromycin at 37° C. in a humidified atmosphere with 5% CO2 in a collagen-coated tissue culture flask.
HepG2-NTCP cells were seeded in 384 well plate containing 16,000 cells/well two days prior to the infection. On the day of infection, compounds were 3-fold serially diluted in DMSO and pre-incubated with HepG2-NTCP cells for two hours before purified HBV addition. HBV infection was carried out at 2000 GE/cell with 4% PEG, and the final concentration of DMSO is 0.5%. On day one post infection, HBV-containing media was aspirated, cells were washed once with PBS and then maintained in 2.5% DMSO containing media for the remainder of the assay.
Supernatants from infected HepG2-NTCP cells were collected at day 8 post infection, and the amount of viral antigen HBeAg was measured by HBeAg AlphaLISA detection kit (PerkinElmer) following the manufacturer's recommended protocol. Irrespective of readout, compound concentrations that reduce viral product accumulation in supernatants by 50% relative to DMSO controls (EC50) are reported. EC50 ranges are as follows: A<0.1 μM; B 0.1-1 μM; C>1 μM. A dash (-) indicates the compound was not tested.

NTCP = target: T1, NTCP (Homo sapiens, UniProt Q14973); assay: HepG2-NTCP preS1 Binding Competition Assay; details: HepG2-NTCP cells pre-treated 2 hours, FITC-labeled myristoylated preS1 peptide co-incubated 30 minutes, cell-surface fluorescence; read-out: Cellular EC50
T1 construct: expressed in transfected cells; host or cells: HepG2-NTCP (A3 clone, kept under puromycin)
T1 sequence (Q14973 1-349): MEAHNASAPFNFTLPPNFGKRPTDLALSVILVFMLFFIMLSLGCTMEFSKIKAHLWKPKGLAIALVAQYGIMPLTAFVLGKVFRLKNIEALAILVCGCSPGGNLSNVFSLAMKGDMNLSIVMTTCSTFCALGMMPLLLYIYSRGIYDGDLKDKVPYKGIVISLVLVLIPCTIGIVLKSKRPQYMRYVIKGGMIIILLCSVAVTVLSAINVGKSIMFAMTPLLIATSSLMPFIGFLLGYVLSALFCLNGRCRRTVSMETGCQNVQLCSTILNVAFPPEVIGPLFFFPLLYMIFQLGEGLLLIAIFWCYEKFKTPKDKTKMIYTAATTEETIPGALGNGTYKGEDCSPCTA
Description: Myristoylated preS1 peptide (2-48 aa) conjugated to a C-terminal FITC tag was synthesized to evaluate preS1 binding to NTCP-expressing cells. HepG2-NTCP cells seeded in 384-wells were pre-treated with compounds for 2 hours prior to the addition of FITC-labeled preS1 peptide. After co-incubation for 30 minutes, unbound FITC-preS1 peptide was washed twice with PBS, and the fluorescence of preS1-FITC bound to cell surface was detected by Envision plate reader. EC50 ranges are as follows: A<0.1 μM; B 0.1-1 μM; C>1 μM. A dash (-) indicates the compound was not tested.

EC50 (NTCP)	EC50 (HBV; HBV-infected HepG2-NTCP cells, HBeAg in supernatants at day 8 post infection, 50% reduction relative to DMSO controls, read-out: Cellular EC50)	Compound	EC50 (HBV; read-out: Cellular EC50 (μM))
100 to 1000 nM		CN1[C@H](C2CCCCC2)CN(C2CCCCC2)c2cc(Cl)c(/C=C/C(C)(C)C(=O)O)cc2S1(=O)=O [Example 10, (R,E)-4-(7-chloro-3,5-dicyclohexyl-2-methyl-1,1-dioxido-2,3,4,5-tetrahydrobenzo[f][1,2,5]thiadiazepin-8-yl)-2,2-dimethylbut-3-enoic acid]	
100 to 1000 nM		CCCCCOC(=O)N[C@H](CCc1cc2c(cc1Cl)N(c1ccccc1)C[C@@H](C1CCCCC1)N(C)S2(=O)=O)C(=O)O [Example 17]	
100 to 1000 nM		CCOC(=O)N[C@@H](CCc1cc2c(cc1Cl)N(c1ccccc1)C[C@@H](C1CCCCC1)N(C)S2(=O)=O)C(=O)O [Example 18]	
100 to 1000 nM		CCOC(=O)N[C@H](CCc1cc2c(cc1Cl)N(c1ccccc1)C[C@@H](C1CCCCC1)N(C)S2(=O)=O)C(=O)O [Example 19]	
100 to 1000 nM		CCCCCCCCCOC(=O)N[C@@H](CCc1cc2c(cc1Cl)N(c1ccccc1)C[C@@H](C1CCCCC1)N(C)S2(=O)=O)C(=O)O [Example 20]	
100 to 1000 nM		CCCCCCCCCOC(=O)N[C@H](CCc1cc2c(cc1Cl)N(c1ccccc1)C[C@@H](C1CCCCC1)N(C)S2(=O)=O)C(=O)O [Example 21]	
100 to 1000 nM		CN1[C@H](C2CCCCC2)CN(c2ccccc2)c2cc(Cl)c(CC[C@@H](NC(=O)OCc3ccccc3)C(=O)O)cc2S1(=O)=O [Example 23]	
100 to 1000 nM		CN1[C@H](C2CCCCC2)CN(c2ccccc2)c2cc(Cl)c(CC[C@@H](NC(=O)N3CCCCC3)C(=O)O)cc2S1(=O)=O [Example 24, (R)-4-((R)-7-chloro-3-cyclohexyl-2-methyl-1,1-dioxido-5-phenyl-2,3,4,5-tetrahydrobenzo[f][1,2,5]thiadiazepin-8-yl)-2-(piperidine-1-carboxamido)butanoic acid]	
100 to 1000 nM		CCN(C)C(=O)N[C@H](CCc1cc2c(cc1Cl)N(c1ccccc1)C[C@@H](C1CCCCC1)N(C)S2(=O)=O)C(=O)O [Example 25, (R)-4-((R)-7-chloro-3-cyclohexyl-2-methyl-1,1-dioxido-5-phenyl-2,3,4,5-tetrahydrobenzo[f][1,2,5]thiadiazepin-8-yl)-2-(3-ethyl-3-methylureido)butanoic acid]	
100 to 1000 nM		CCN(C)C(=O)N[C@@H](CCc1cc2c(cc1Cl)N(c1ccccc1)C[C@@H](C1CCCCC1)N(C)S2(=O)=O)C(=O)O [Example 26]	
100 to 1000 nM		CN1[C@H](C2CCCCC2)CN(c2ccccc2)c2cc(Cl)c(CC[C@H](NC(=O)N3CCCCC3)C(=O)O)cc2S1(=O)=O [Example 27]	
100 to 1000 nM		CC(C)CS(=O)(=O)N[C@@H](CCc1cc2c(cc1Cl)N(c1ccccc1)C[C@@H](C1CCCCC1)N(C)S2(=O)=O)C(=O)O [Example 28, (S)-4-((R)-7-chloro-3-cyclohexyl-2-methyl-1,1-dioxido-5-phenyl-2,3,4,5-tetrahydrobenzo[f][1,2,5]thiadiazepin-8-yl)-2-((2-methylpropyl)sulfonamido)butanoic acid]	
100 to 1000 nM		CN1[C@H](C2CCCCC2)CN(c2ccccc2)c2cc(Cl)c(CC[C@H](NC(=O)C(=O)N3CCCC3)C(=O)O)cc2S1(=O)=O [Example 35]	
100 to 1000 nM		CCCCCC(=O)N[C@@H](CCc1cc2c(cc1Cl)N(c1ccccc1)C[C@@H](C1CCCCC1)N(C)S2(=O)=O)C(=O)O [Example 36, (S)-4-((R)-7-chloro-3-cyclohexyl-2-methyl-1,1-dioxido-5-phenyl-2,3,4,5-tetrahydrobenzo[f][1,2,5]thiadiazepin-8-yl)-2-hexanamidobutanoic acid]	
	0.1 to 1 µM	CN1[C@H](C2CCCCC2)CN(c2ccccc2)c2cc(Cl)c(OCC(C)(C)C(=O)O)cc2S1(=O)=O [Example 38, (R)-3-((7-chloro-3-cyclohexyl-2-methyl-1,1-dioxido-5-phenyl-2,3,4,5-tetrahydrobenzo[f][1,2,5]thiadiazepin-8-yl)oxy)-2,2-dimethylpropanoic acid]	
> 1000 nM		CNc1cc2c(cc1C(=O)NC1(C(=O)O)CC1)S(=O)(=O)N(C)[C@H](C1CCCCC1)CN2c1ccccc1 [Example 42]	
100 to 1000 nM		CNc1cc2c(cc1C(=O)NC(C)(C)C(=O)O)S(=O)(=O)N(C)[C@H](C1CCCCC1)CN2c1ccccc1 [Example 43]	
> 1000 nM		CNc1cc2c(cc1C(=O)N[C@H](C(=O)O)C1CCOCC1)S(=O)(=O)N(C)[C@H](C1CCCCC1)CN2c1ccccc1 [Example 44]	
100 to 1000 nM		CNc1cc2c(cc1C(=O)N[C@@H](C(=O)O)c1cccc(Cl)c1)S(=O)(=O)N(C)[C@H](C1CCCCC1)CN2c1ccccc1 [Example 46]	

Compound	EC50 (NTCP)	EC50 (HBV; HBV-infected HepG2-NTCP cells, HBeAg in supernatants at day 8 post infection, 50% reduction relative to DMSO controls, read-out: Cellular EC50)	EC50 (HBV; read-out: Cellular EC50 (μM))
CN1[C@H](C2CCCCC2)CN(c2ccccc2)c2cc(Cl)c(C#CC(C)(C)C(=O)O)cc2S1(=O)=O [Example 1, (R)-4-(7-chloro-3-cyclohexyl-2-methyl-1,1-dioxido-5-phenyl-2,3,4,5-tetrahydrobenzo[f][1,2,5]thiadiazepin-8-yl)-2,2-dimethylbut-3-ynoic acid]	< 100 nM		< 0.1 µM
CN1[C@H](C2CCCCC2)CN(c2ccccc2)c2cc(Cl)c(CCC(C)(C)C(=O)O)cc2S1(=O)=O [Example 2, (R)-4-(7-chloro-3-cyclohexyl-2-methyl-1,1-dioxido-5-phenyl-2,3,4,5-tetrahydrobenzo[f][1,2,5]thiadiazepin-8-yl)-2,2-dimethylbutanoic acid]	< 100 nM		< 0.1 µM
CN1[C@H](C2CCCCC2)CN(C2CCCCC2)c2ccc(CCC(C)(C)C(=O)O)cc2S1(=O)=O [Example 3, (R)-4-(3,5-dicyclohexyl-2-methyl-1,1-dioxido-2,3,4,5-tetrahydrobenzo[f][1,2,5]thiadiazepin-8-yl)-2,2-dimethylbutanoic acid]	< 100 nM		0.1 to 1 µM
CN1[C@H](C2CCCCC2)CN(C2CCCCC2)c2cc(Cl)c(CCC(C)(C)C(=O)O)cc2S1(=O)=O [Example 4, (R)-4-(7-chloro-3,5-dicyclohexyl-2-methyl-1,1-dioxido-2,3,4,5-tetrahydrobenzo[f][1,2,5]thiadiazepin-8-yl)-2,2-dimethylbutanoic acid]	< 100 nM		0.1 to 1 µM
CN1[C@H](C2CCCCC2)CN(c2ccccc2)c2cc(Cl)c(C#CC3(C(=O)O)CC3)cc2S1(=O)=O [Example 5]	100 to 1000 nM		< 0.1 µM
CN1[C@H](C2CCCCC2)CN(c2ccccc2)c2cc(Cl)c(CCC3(C(=O)O)CC3)cc2S1(=O)=O [Example 6]	100 to 1000 nM		< 0.1 µM
CN1[C@H](C2CCCCC2)CN(c2ccccc2)c2cc(F)c(CCCC(=O)O)cc2S1(=O)=O [Example 7]	100 to 1000 nM		0.1 to 1 µM
CC(C)Oc1cccc(COc2cc3c(cc2C#CC2(C(=O)O)CC2)S(=O)(=O)N(C)[C@H](C2CCCCC2)CN3c2ccccc2)c1 [Example 11, (R)-1-((3-cyclohexyl-7-((3-isopropoxybenzyl)oxy)-2-methyl-1,1-dioxido-5-phenyl-2,3,4,5-tetrahydrobenzo[f][1,2,5]thiadiazepin-8-yl)ethynyl)cyclopropane-1-carboxylic acid]	100 to 1000 nM		< 0.1 µM
CN1[C@H](C2CCCCC2)CN(c2ccccc2)c2cc(Cl)c(CC[C@H](NC(=O)OC(C)(C)C)C(=O)O)cc2S1(=O)=O [Example 12, (S)-2-((tert-butoxycarbonyl)amino)-4-((R)-7-chloro-3-cyclohexyl-2-methyl-1,1-dioxido-5-phenyl-2,3,4,5-tetrahydrobenzo[f][1,2,5]thiadiazepin-8-yl)butanoic acid]	< 100 nM		< 0.1 µM
CN1[C@H](C2CCCCC2)CN(c2ccccc2)c2cc(Cl)c(CC[C@@H](NC(=O)OC(C)(C)C)C(=O)O)cc2S1(=O)=O [Example 13]	< 100 nM		< 0.1 µM
CC(C)COC(=O)N[C@@H](CCc1cc2c(cc1Cl)N(c1ccccc1)C[C@@H](C1CCCCC1)N(C)S2(=O)=O)C(=O)O [Example 14, (S)-4-((R)-7-chloro-3-cyclohexyl-2-methyl-1,1-dioxido-5-phenyl-2,3,4,5-tetrahydrobenzo[f][1,2,5]thiadiazepin-8-yl)-2-((isobutoxycarbonyl)amino)butanoic acid]	100 to 1000 nM		< 0.1 µM
